Drawing on patent US12172990B2 (Constellation Pharmaceuticals, Inc., priority 2018, dated 2024), this text covers IC50 for four compounds.

pIC50: −log10 of the molar value.

For assay [1], the target named is human TREX2 (residues M44-A279) (Homo sapiens (Human), UniProt Q9BQ50). The assay can be described thus: TREX2 Biochemical Assay (fluorescence assay measuring degradation of dsDNA substrate). The settings on record: 2.5 nM TREX2, 60 nM dsDNA substrate, 25 minutes at room temperature. An outline of the steps: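 Final conditions: 2.5 nM His-Tev-tagged TREX2 (E. coli-expressed), 60 nM fluorophore/quencher-labelled dsDNA, 50 mM Tris pH 7.4, 150 mM NaCl, 100 mM MgCl2, 1% DMSO; 10-point compound dose-response. Incubated 25 min at room temperature, then EDTA-quenched; fluorescence read at ex 570/em 615 nm. IC50 from four-parameter fit against pre-quenched and no-inhibitor controls.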
human TREX2 (residues M44-A279), sequence (Q9BQ50 whole entry, the tested form may be a part): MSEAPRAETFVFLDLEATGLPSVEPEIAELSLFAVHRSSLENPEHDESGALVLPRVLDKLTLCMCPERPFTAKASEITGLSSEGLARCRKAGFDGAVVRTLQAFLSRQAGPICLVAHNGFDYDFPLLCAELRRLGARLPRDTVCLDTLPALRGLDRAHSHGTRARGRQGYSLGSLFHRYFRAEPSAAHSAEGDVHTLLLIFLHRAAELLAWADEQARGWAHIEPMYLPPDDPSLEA

The target in another assay is full length human TREX1 (Homo sapiens (Human), UniProt Q9NSU2). The assay can be described thus: TREX1 Biochemical Assay (fluorescence assay measuring degradation of dsDNA substrate). The settings on record: 150 pM TREX1, 60 nM dsDNA substrate, 25 minutes at room temperature. In a few lines: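 His-Tev-tagged full-length human TREX1 expressed in E. coli, 150 pM final, with 60 nM TEX615/quencher-labelled 9-mer dsDNA in Tris pH 7.4, NaCl, DTT, BSA, Tween-20, MgCl2 and 1.0% DMSO; 25 min at room temperature, EDTA-quenched. Fluorescence 615 nm (excitation 570 nm); 10-point IC50 by four-parameter fit against pre-quenched and no-inhibitor controls.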
full length human TREX1, sequence (Q9NSU2 whole entry): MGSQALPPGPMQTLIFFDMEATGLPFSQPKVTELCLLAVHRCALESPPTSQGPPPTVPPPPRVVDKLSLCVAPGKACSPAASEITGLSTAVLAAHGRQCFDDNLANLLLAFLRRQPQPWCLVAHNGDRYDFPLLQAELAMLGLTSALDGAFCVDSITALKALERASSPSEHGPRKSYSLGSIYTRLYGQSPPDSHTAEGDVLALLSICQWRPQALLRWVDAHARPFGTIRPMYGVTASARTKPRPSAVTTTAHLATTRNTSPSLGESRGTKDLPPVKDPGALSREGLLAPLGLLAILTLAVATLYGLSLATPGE

Turning to `CC(=O)N1CCN(c2nc(C(=O)Nc3cnoc3)c(O)c(=O)n2C)[C@H](c2ccccc2Cl)C1` [Example 128, (R)-2-(4-acetyl-2-(2-chlorophenyl)piperazin-1-yl)-5-hydroxy-N-(isoxazol-4-yl)-1-methyl-6-oxo-1,6-dihydropyrimidine-4-carboxamide], the negative-log IC50 (pIC50) in assay [1] was above 6.00; at full length human TREX1, above 7.00.
Consider `Cn1c(C2CCCN(CCc3ccccc3)C2)nc(C(=O)Nc2cnoc2)c(O)c1=O` (centres unmarked) [Example 129, 5-hydroxy-N-(isoxazol-4-yl)-1-methyl-6-oxo-2-(1-phenethylpiperidin-3-yl)-1,6-dihydropyrimidine-4-carboxamide], for which the negative-log IC50 (pIC50) in assay [1] was below 4.00; against full length human TREX1, below 5.00.
On the same counts, the results for `Cn1c(C2(C)CCCN(C(=O)c3ccc(Cl)c(Cl)c3)C2)nc(C(=O)Nc2cnoc2)c(O)c1=O` (centres unmarked) [Example 130, 2-(1-(3,4-dichlorobenzoyl)-3-methylpiperidin-3-yl)-5-hydroxy-N-(isoxazol-4-yl)-1-methyl-6-oxo-1,6-dihydropyrimidine-4-carboxamide] are 5.00 to 6.00 and 6.00 to 7.00.
As to `Cn1c([C@@H]2CCCN(C(=O)c3ccc(Cl)c(Cl)c3)C2)nc(C(=O)Nc2cnoc2)c(O)c1=O` [Example 131, (R)-2-(1-(3,4-dichlorobenzoyl)piperidin-3-yl)-5-hydroxy-N-(isoxazol-4-yl)-1-methyl-6-oxo-1,6-dihydropyrimidine-4-carboxamide], the pIC50 in assay [1] is above 6.00; on full length human TREX1 it was above 7.00.

What is called pIC50 is the IC50 on a negative log10 scale, so that one unit is a factor of ten. A low value points to a high IC50.
